Data from patent US20070292403A1, “Methods of treating a neurological disorder with creatine monohydrate” (priority 2006, published 2007).

Assays:
Type in all cases: in vivo, human
[1] = system: subjects with Huntington's disease; test: Example 1: tolerability, safety and clinical (UHDRS) measures of creatine 8 g/day in Huntington's disease, randomized placebo-controlled; parameters: Serum creatinine: unit: mg/dL; conditions: for Serious adverse events / Study withdrawal before week 24: monohydrate
Experimental: Study design. Sixty-four subjects were enrolled at four sites. Eligible subjects were randomized to 8 g/day of creatine monohydrate or placebo by computer-generated blocked randomization with site stratification. Treatment was administered as chewable wafers twice daily for 16 weeks. A medical monitor and independent safety committee reviewed clinical data monthly. Consent, study procedures, and case report forms were approved by the institutional review board at each site. Blood samples for analysis of serum biomarkers were obtained with consent from 30 age-appropriate individuals without neurological illnesses.
Eligibility criteria. Eligible subjects were 18 years of age and older with a diagnosis of Huntington's disease confirmed by genetic testing, a total functional capacity score of ≧5, and a caregiver to witness consent and monitor compliance. Exclusion criteria included previous creatine exposure within 30 days of baseline; underlying hematological, hepatic, or renal disease; screening white blood cell count <3,800/mm^3; creatinine >2.0 mg/dL or alanine aminotransferase greater than twice the upper normal limit; or unstable medical/psychiatric illness.
(§1) Study protocol. Subjects were screened within 25 days of randomization (baseline visit). Screening included assessment of eligibility criteria, medical history, physical examination, Unified Huntington's Disease Rating Scale (UHDRS), EKG, DNA analysis, complete blood count, chemistry panel, and urinalysis. Subjects were on study drug (creatine or placebo) for 16 weeks, followed by an 8-week washout. Study visits occurred at baseline, weeks 8, 16, and 24 with telephone contacts at weeks 1, 10 and 20. Physical examination was done at screening and week 16. UHDRS scores, vital signs, adverse event assessment, and safety laboratory tests were repeated at all visits. Blood was collected for serum creatine levels and serum 8-hydroxy-2′-deoxyguanosine (8OH2′dG), a measure of oxidative injury affecting DNA. The later was analyzed in the samples from two sites. Magnetic resonance spectroscopy (MRS; STEAM; TR/TE=6000/20 milliseconds) of frontal cortex (voxel size=56 cc) and occipital cortex (voxel size=18 cc) performed at one site was analyzed for this report. Subject compliance was assessed by wafer counts.
Statistical analysis. The primary outcome measure was tolerability. […] Within 27 subjects per group, there was a 94% power to detect an absolute difference of 50% or more between the placebo group and the active treatment group assuming a 15% dropout rate. In accordance with intent to treat, all randomized subjects were included in safety and tolerability analysis. Tolerability was assessed by comparing the proportion of treatment failures in creatine and placebo groups using χ^2 test with continuity correction. As the primary interest was in detecting intolerability in the active group, a one-sided test was used (significance=0.05). This was also applied to assess adverse events and laboratory abnormalities. The laboratory score changes from screening were analyzed by repeated-measures analysis of variance (ANOVA), and the differences between visits were analyzed by paired t test. Demographic and baseline variables were summarized for each group, and comparisons made using Fischer's exact test and continuous variables were compared using t test. Changes in UHDRS motor, cognitive, behavioral, and functional component subscores were measured at baseline and weeks 8, 16, and 24 and analyzed by mixed-model ANOVA.

[2] = system: serum 8OH2′dG; test: Example 3: serum 8OH2'dG suppression in dose escalation
Experimental: (§2) A two-phase open-label study was conducted to better determine an optimal dose of creatine symptomatic subjects with Huntington's disease. A dose-escalation study (10-40 grams per day) was conducted to determine the maximally tolerated dose (MTD) followed by a de-escalation phase to assess whether brain and serum levels of creatine might be maximal at doses lower than the MTD. Ten subjects were enrolled and followed prospectively for two weeks at each done level increasing in 5-gram increments during dose escalation that lasted 13 weeks. Assessments at each visit included UHDRS, EKG, vital signs, clinical safety and research labs. MRI spectroscopy was conducted prior to baseline at peak done (40 grams) and one month after de-escalation to either 30 or 15 grams daily. To determine an optimal dose, pharmacokinetic as well as clinical data were considered. Once the maximal dose was reached, subjects were assigned one of two lower doses previously taking (15 grams a day (n=5) or 30 grams a day (n=5)). Serum creatine was assessed at baseline, at the end of each 2-week dose escalation step and at the end of the de-escalation phase to assess the correspondence between serum and brain levels of creatine at steady state.

[3] = system: symptomatic subjects with Huntington's disease; test: Example 3: open-label dose escalation (10-40 grams per day), tolerability, safety and UHDRS
Experimental: as §2

[4] = system: serum 8-hydroxy-2′-deoxyguanosine (8OH2′dG); test: Example 1: serum 8OH2'dG biomarker of oxidative injury to DNA; conditions: baseline to 16 weeks, 8 g/day; SD=13.93; placebo increase 5.87; p<0.0042
Text: as §1

[5] = Example 1: serum creatine levels and brain creatine by magnetic resonance spectroscopy; conditions: for Increase in absolute creatine concentration by MRS: by week 16, 8 g/day, p<0.05, returned to baseline at week 24
Text: as §1

[6] = 8 g/day, n = 32, frequency, listed as creatine
[7] = adverse event frequency, 8 g/day, n = 32

Structure (SMILES): CN(CC(=O)O)C(=N)N [Creatine, creatine monohydrate]
- Laboratory abnormalities ([1]; 8 g/day): mild reversible serum creatinine and alkaline phosphatase elevations
- Tolerability ([1]; 8 g/day, chewable wafers twice daily, 16 weeks): well tolerated
- All adverse events: mild, moderate and severe, (%) ([1]; 8 g/day, n = 32): 86.9%
- All adverse events: mild, moderate and severe, no. ([1]; 8 g/day, n = 32, frequency): 26
- Serious adverse events [1, 6]: three
- Study withdrawal before week 24 [1, 6]: three
- Serious adverse events ([1]; 8 g/day, n = 32, frequency): 3
- Study withdrawal before week 24 ([1]; 8 g/day, n = 32, frequency): 2
- Body mass index and UHDRS subscores compared with baseline ([1]; 8 g/day, paired t test): did not change with treatment
- Apathy [1, 7]: 1
- Cough [1, 7]: 1
- Depression [1, 7]: 4
- Dizziness [1, 7]: 1
- Dysphagia [1, 7]: 1
- Fall [1, 7]: 3
- Hematuria [1, 7]: 1
- Increased movements [1, 7]: 1
- Irritability [1, 7]: 3
- Lethargy [1, 7]: 2
- Vomiting [1, 7]: 1
- Serum creatinine ([1]; creatine group by week 8, from 0.88±0.19, p<0.01, elevated at week 16, baseline at washout, in mg/dL (unit assumed)): 1.04±0.24
- Doses associated with maximum suppression of serum 8OH2′dG, levels similar to normal controls [2]: greater than 25 grams daily
- Serum 8OH2′dG ([2]; greater than seen with 8 grams per day): dose dependent suppression
- Dose tolerated by all subjects during dose escalation ([3]; 10 subjects, 5-gram increments, two weeks per dose level, no withdrawals): up to 40 grams/day
- Changes in UHDRS subscores ([3]; dose escalation 10-40 grams per day): not significant
- Adverse events at high doses ([3]; in vivo): increased numbers of adverse events
- Average creatinine level ([3]; in vivo): 1.28 ± 0.16 mg/dL
- BUN levels ([3]; in vivo): did not increase
- Serious adverse events, laboratory abnormalities, EKG ([3]; in vivo): no serious adverse events, no significant laboratory abnormalities and no EKG alterations
- Tolerability at selected dose ([3]; in vivo): excellent tolerability
- Average reduction of serum 8OH2′dG [4]: 9.11 pg/mL
- Increase in absolute creatine concentration by MRS ([5]; frontal cortex): 7.5%
- concentration at 16 weeks ([5]; human, serum, oral, 8 g/day, week 16, baseline 46.4 (SD=35.7), SD=259.9, read-out: Average serum creatine level): 382 µM
- concentration at 24 weeks ([5]; human, serum, oral, at washout after 8 g/day for 16 weeks, SD=29.5, read-out: Average serum creatine level): 51.8 µM
- Increase in absolute creatine concentration by MRS ([5]; occipital cortex): 13%
